Laboratory results: patent publication US20220127297A1, “Novel Antibacterial 3"-Derivatives Of 4,6-Disubstituted 2,5-Dideoxystreptamine Aminoglycoside Antibiotics” (AGILeBiotics B.V., priority 2018, published 2022)
Converted amounts (≈) assume the structure as drawn. Where two headings read alike, the source gives them in different places.

Assays:
E. coli (APH(3′)Ia) = test: MIC 50, broth micro-dilution, E. coli expressing APH(3′)Ia; format: cell-based, Escherichia coli
Protocol: Plasmid transformation. Approximately 500 ng of the pET-9b(+) (Cat. No. 69432-3, Merck), pAT21-1 (provided by Prof. Dr. Patrice Courvalin, M.D., Pasteur Institute, France; prepared according to Trieu-Cuot et. al, Mol. Gen. Genet. 198(2), 348 (1985)), pBluescript::AAC(6′)-Ie/APH(2″)-Ia (provided by Prof. Dr. Sergei Vakulenko, M.D., University of Notre Dame, Ind., USA; prepared according to S. B. Vakulenko et. al., J. Biol. Chem. 287 (52), 43262 (2012)), pBlue_lpp_aacC3_rrnC and pSET152 (Cat. No. PVT3395, Life Science Market; prepared according to Bierman et al., Gene 116 (1), 43 (1992)) plasmids, encoding APH(3′)-Ia (SEQ ID NO:2), APH(3′)-IIIa (SEQ ID NO:3), AAC(6′)Ie-APH(2″)-Ia (SEQ ID NO:4), AAC(3)-III (SEQ ID NO:1), and AAC(3)-IV (SEQ ID NO:5) respectively, were individually incubated in a vial of competent cells for 15 min on ice. The cells were subsequently heated to 42° C. for 90 s, and cooled on ice for 1 min. After addition of 900 μL LB, the cells were incubated for 1 h at 37° C. and 200 rpm. Cells were plated on LB-agar supplemented with 50 μg/mL KanaA and incubated for 18 h at 37° C. The next day, a single colony was inoculated in 5 mL LB supplemented with 50 μg/mL and grown for 18 h at 37° C. and 200 rpm. A 200 μL sample of each culture was diluted with 200 μL of 40% v/v glycerol in water, and stored at −80° C. The plasmid was purified from the remaining culture using the Plasmid Miniprep kit. Plasmid DNA was investigated by Eurofins Genomics (Germany) to confirm the identity of the aminoglycoside resistance genes.
(§1) 3.1 Against E. coli Strains
(§2) Tested reference compounds. Amikacin sulfate (Cat. No. 01693, Chem-Impex), Gentamicin sulfate (Cat. No. G4918, Sigma Aldrich).
(§3) Microbial strains. E. coli ATCC 25922, E. coli ATCC 25922/pET-9b(+), E. coli ATCC 25922/pAT21-1, E. coli ATCC 25922/pBluescript::AAC(6′)-Ie/APH(2″)-Ia, E. coli ATCC 25922/pBlue_lpp_aacC3_rrnC, E. coli ATCC 25922/pSET152.
(§4) Culture media and equipment. BBL™ Mueller Hinton Broth 2 (Lot. BCBW1143, Cat. No. 70192, Sigma); Kanamycin A (Cat. No. A1493, AppliChem); 96-well deep well plate, 1 mL (Cat. No. 0030506.200, Eppendorf); Plate lids (Cat. No. 0030131.525, Eppendorf); 96-well plate, F-bottom (Cat. No. 781602, Brand; Incubator, Infors Multitron Pro); Laminar flow (Heraeus KS12); UV/VIS meter (Eppendorf BioPhotometer Plus); Platereader (Tecan Sunrise).
(§5) Compound preparation. Compounds were prepared in MH2 media at a concentration of 5 mM and stored at 4° C. For testing, solutions of 128 μM were prepared in MH2. Out of these working solutions, 400 μL was transferred to wells in the first column of 96-well deep well plates. Each compound was transferred in triplicate. Plates were previously filled with 200 μL of MH2 media in all wells except for the wells in the first column. After compound and antibiotic addition, the compounds were serial two-fold diluted by transferring 200 μL from the first to the second column, then from the second to the third column and so on. Finally, 200 μL was removed from the last column.
(§6) Inoculum preparation. Microorganisms used were all revived from 20% glycerol (40% v/v glycerol in water was diluted with MH2) storage at −80° C. by inoculating them in 5 mL MH2. inoculums of E. coli containing a plasmid were selected for by adding 50 μg/mL KanaA. The Inoculums were grown to an optical density (measured by UV/Vis spectroscopy) of 0.6-0.8 at 600 nm. Out of these suspensions, actual inoculums were prepared by diluting them to an optical density (OD) of 0.1 in MH2 media. From these inoculums, 200 μL was transferred to each well, resulting in a final compound concentration range of 64 μM-31.3 nM. All plates were incubated at 900 rpm and 70% rH for 18 h at 37° C.
MIC determination. After 18 h of growth, 200 μL was transferred to a 96-well F-bottom plate. The optical density was determined by a plate reader at 600 nm, with 10 s shaking before reading. Triplicate measurements were averaged, and a growth curve was plotted in Microsoft Excel. […]

E. coli ATCC25922 strain = test: MIC 50, broth micro-dilution, wild-type Escherichia coli; format: cell-based; settings: MH2, 18 h
From the text: as §1, §2, §3, §4, §5, §6
MIC determination. After 18 h of growth, 200 μL was transferred to a 96-well F-bottom plate. The optical density was determined by a plate reader at 600 nm, with 10 s shaking before reading. Triplicate measurements were averaged, and a growth curve was plotted in Microsoft Excel. The first column in which the growth reached half the value of maximum growth was determined as the MIC50 value for that particular compound.
MIC50. The MIC50 of a compound was assigned at which the bacterial growth reached half the value of maximum growth.

[1] = Escherichia coli, ATCC25922, ATCC25922 harboring plasmid encoding APH(3′)Ia
[2] = Escherichia coli, ATCC25922, 18 h
[3] = ATCC25922 harboring plasmid encoding APH(3′)Ia

Row | Structure (SMILES) | MIC50 (E. coli (APH(3′)Ia); [1]) [µM] | MIC50 (E. coli ATCC25922 strain; [2]) [µM] | MIC50 (E. coli (APH(3′)Ia); [3]) [µM] | MIC50 (E. coli ATCC25922 strain) [µM] | MIC50 (E. coli ATCC25922 strain; Escherichia coli, read-out: MIC 50) [µM]
1 | N=C(NCCO)NC1[C@@H](O)C(OC2[C@@H](F)[C@H](O[C@H]3OC(CN)[C@@H](O)CC3N)C(N)C[C@H]2NC(=O)[C@@H](O)CCN)O[C@H](CO)[C@H]1O (stereo partly shown) [ABX5029, Tobra-AHB-F-Gua 2-hydroxy-ethyl] | 2 (≈ 1.31 µg/mL) | 0.5 (≈ 0.328 µg/mL) | – | – | –
2 | NCC[C@H](O)C(=O)N[C@@H]1CC(N)[C@@H](O[C@H]2OC(CN)[C@@H](O)CC2N)[C@H](F)C1OC1O[C@H](CO)[C@@H](O)C(N)[C@H]1O (stereo partly shown) [ABX5024, Tobra-AHB-F] | – | – | 2 to 4 | 1 (≈ 0.571 µg/mL) | –
3 | N=C(NC[C@H]1CNCCO1)NC1[C@@H](O)C(OC2[C@@H](F)[C@H](O[C@H]3OC(CN)[C@@H](O)CC3N)C(N)C[C@H]2NC(=O)[C@@H](O)CCN)O[C@H](CO)[C@H]1O (stereo partly drawn) [ABX5043, Tobra-AHB-F-Gua (R) morpholin-2-yl methyl] | 0.5 to 1 (≈ 0.356 to 0.712 µg/mL) | 0.25 (≈ 0.178 µg/mL) | – | – | –
4 | N=C(NCc1ccncc1)NC1[C@@H](O)C(OC2[C@@H](F)[C@H](O[C@H]3OC(CN)[C@@H](O)CC3N)C(N)C[C@H]2NC(=O)[C@@H](O)CCN)O[C@H](CO)[C@H]1O (stereo partly shown) [ABX5048, Tobra-AHB-F-Gua pyridin-4-yl methyl] | 1 (≈ 0.704 µg/mL) | 1 (≈ 0.704 µg/mL) | – | – | –
5 | NCC[C@H](O)C(=O)N[C@@H]1C[C@H](N)[C@@H](O[C@H]2O[C@H](CN)[C@@H](O)[C@H](O)[C@H]2O)[C@H](O)[C@H]1O[C@H]1O[C@H](CO)[C@@H](O)[C@H](N)[C@H]1O [Amikacin, amikacin, reference compound] | 8 (≈ 4.68 µg/mL) | – | – | – | 2 (≈ 1.17 µg/mL)
6 | N=C(NC[C@@H]1CCNC1)NC1[C@@H](O)C(OC2[C@@H](F)[C@H](O[C@H]3OC(CN)[C@@H](O)CC3N)C(N)C[C@H]2NC(=O)[C@@H](O)CCN)O[C@H](CO)[C@H]1O (stereo partly drawn) [ABX5039, Tobra-AHB-F-Gua (R) pyrrolidine-3-ylmethyl] | 0.25 (≈ 0.174 µg/mL) | 0.25 (≈ 0.174 µg/mL) | – | – | –
7 | N=C(NCC1CCOC1)NC1[C@@H](O)C(OC2[C@@H](F)[C@H](O[C@H]3OC(CN)[C@@H](O)CC3N)C(N)C[C@H]2NC(=O)[C@@H](O)CCN)O[C@H](CO)[C@H]1O (stereo partly shown) [ABX5051, Tobra-AHB-F-Gua tetrahydrofuran-3-yl methyl] | 1 (≈ 0.697 µg/mL) | 0.5 (≈ 0.348 µg/mL) | – | – | –
8 | NCCC(O)C(=O)NC1CC(N)C(OC2OC(CN)C(O)C(O)C2N)C(F)C1OC1OC(CO)C(O)C(N)C1O (stereo not shown) [ABX4007, KanaB-AHB-F] | – | – | 4 (≈ 2.35 µg/mL) | 1 (≈ 0.587 µg/mL) | –
9 | C[C@@H](N)CCNC(=N)NC1[C@@H](O)C(OC2[C@@H](F)[C@H](O[C@H]3OC(CN)[C@@H](O)CC3N)C(N)C[C@H]2NC(=O)[C@@H](O)CCN)O[C@H](CO)[C@H]1O (stereo partly drawn) [ABX5047, Tobra-AHB-F-Gua (R) 3-amino-butyl] | 0.5 (≈ 0.342 µg/mL) | 0.25 (≈ 0.171 µg/mL) | – | – | –
10 | N=C(N)NC1[C@@H](O)C(OC2[C@@H](F)[C@H](O[C@H]3OC(CNCCO)[C@@H](O)CC3N)C(N)C[C@H]2NC(=O)[C@@H](O)CCN)O[C@H](CO)[C@H]1O (stereo partly shown) [ABX5045, 6N-2-hydroxy-ethyl-Tobra-AHB-F-Gua] | 1 (≈ 0.657 µg/mL) | 1 (≈ 0.657 µg/mL) | – | – | –
11 | N=C(NC[C@@H]1CCCN1)NC1[C@@H](O)C(OC2[C@@H](F)[C@H](O[C@H]3OC(CN)[C@@H](O)CC3N)C(N)C[C@H]2NC(=O)[C@@H](O)CCN)O[C@H](CO)[C@H]1O (stereo partly drawn) [ABX5026, Tobra-AHB-F-Gua (S) pyrrolidine-2-yl-methyl] | 1 (≈ 0.696 µg/mL) | 0.25 (≈ 0.174 µg/mL) | – | – | –
